Results from patent US20130261024A1, “System for Identifying Connections Between Perturbagens and Genes Associated with a Skin Hyperpigmentation Condition” (THE PROCTER & GAMBLE COMPANY, priority 2012, published 2013).

Columns and labels:
hyperpigmented spots = assay: 9-week randomized, double-blind, vehicle-controlled, split-face tone benefit clinical study; format: in vivo, Chinese females; conditions: 0.05% in SC-99 vehicle
Text: This Example provides evidence of the advantages of using composite signatures and illustrates clinical affirmation of the C-map model for predicting efficacy of skin-lightening agents. This Example supports embodiments related to composite signatures (as described at the end of Example 3). An illustrative “Skin Tone” Signature developed from a genomics study using a composite skin-lightening benchmark agent signature is derived from Niacinamide, Hexamidine, Sepiwhite, and NAG. The signature is used to query C-map and generate a list of potential skin-lightening agents. A top hit, Chlorhexidine Diactate (CD) is entered into clinical testing for confirmation of efficacy. The control for clinical efficacy is a 5% Niacinamide+1% Sepiwhite formulation in the control vehicle.
Primary endpoints are changes in color spot area fraction (image analysis) and melanin spot area fraction (NC2) from baseline. Secondary endpoints are changes from baseline in L*a*b (color image analysis), mean melanin gray scale (NC2), and melanin evenness (NC2). Texture area fraction and pore area fraction are also evaluated to explore impact on other aspects relating to overall skin tone. […] Statistically significant superiority to the high efficacy benchmark skin active agent to vehicle performance is the clinical success criteria.
Study Design: The experimental protocol included a 9-week (1-week preconditioning & 8-week treatment), randomized, double-blind, round robin, vehicle-controlled, split-face tone benefit study. The subject population included 330 Chinese females, 25-55 years old with hyperpigmented spots. 318 subjects completed the entire study. […] Olay Complete SPF 15 UV Moisturizing Lotion is concomitantly used during pre-conditioning and treatment. 0.5 g each test product per half-face (forehead to jaw line; ˜4 mg/cm^2) is dosed 2× a day (morning/evening). Color SAF and treatment area, Melanin SAF, gray scale, evenness by NC2, and additional measurement of Fine Lines and Wrinkle and Texture are by REAL 3.01A. Data collection points include baseline, and ends of weeks 4, 6 and 8. The tested hypothesis is that there is no difference in clinical endpoint versus the benchmark composition treatment. Study site is Kuntai Clinical Center, Beijing, China and study time frame is February 2010 (pre-conditioning) to April 2010.

[1] = system: tert-Keratinocyte (tKC) cells; assay: C-map query with the composite "skin tone" benchmark signature (Niacinamide, Sepiwhite, NAG, Hexamidine); format: cell-based, human; conditions: composite signature of Example 3
Protocol: (§1) Individual experiments (referred to as batches) generally comprise 30 to 96 samples analyzed using Affymetrix GeneChip® technology platforms, containing 6 replicates of the vehicle control (e.g., DSMO), 2 replicate samples of a positive control that gives a strong reproducible effect in the cell type used, and samples of the test material/perturbagen. Replication of the test material is done in separate batches due to batch effects. In vitro testing was performed in 6-well plates to provide sufficient RNA for GeneChip® analysis (2-4 μg total RNA yield/well).
Human telomerized keratinocytes (tKC) were obtained from the University of Texas, Southwestern Medical Center, Dallas, Tex. tKC cells were grown in EpiLife® media with 1× Human Keratinocyte Growth Supplement (Invitrogen, Carlsbad, Calif.) on collagen I coated cell culture flasks and plates (Becton Dickinson, Franklin Lakes, N.J.). Keratinocytes were seeded into 6-well plates at 20,000 cells/cm^2 24 hours before chemical exposure. Human skin fibroblasts (BJ cell line from ATCC, Manassas, Va.) were grown in Eagle's Minimal Essential Medium (ATCC) supplemented with 10% fetal bovine serum (HyClone, Logan, Utah) in normal cell culture flasks and plates (Corning, Lowell, Mass.). BJ fibroblasts were seeded into 6-well plates at 12,000 cells/cm^2 24 hours before chemical exposure. […]

[2] = system: teleomerized human keratinocytes (tKC); assay: C-map query with the Retinoic Acid/Keratinocyte 200 benchmark signature; format: cell-based; conditions: Retinoic Acid Keratinocyte RA-200 signature
Protocol: as §1
Human telomerized keratinocytes (tKC) were obtained from the University of Texas, Southwestern Medical Center, Dallas, Tex. tKC cells were grown in EpiLife® media with 1× Human Keratinocyte Growth Supplement (Invitrogen, Carlsbad, Calif.) on collagen I coated cell culture flasks and plates (Becton Dickinson, Franklin Lakes, N.J.). Keratinocytes were seeded into 6-well plates at 20,000 cells/cm^2 24 hours before chemical exposure. […]
(a) Tert-keratinocytes (tKC) RA Signatures. […] Cells were treated with 1 uM tRA for 6 hr, tested in triplicate, with triplicate DMSO controls, and analyzed on HG-U133A GeneChips. […]

| SMILES | Pore area fraction (hyperpigmented spots; compared to vehicle, week 8) | Texture area fraction (hyperpigmented spots; compared to vehicle, week 8) | spot area fraction color test (hyperpigmented spots; compared to vehicle, week 8) | spot area fraction NC2 test (hyperpigmented spots; compared to vehicle, weeks 6 and 8) | Basal skin tone (hyperpigmented spots; versus vehicle, week 8) | NC2 Melanin evenness test (hyperpigmented spots; versus vehicle, weeks 6 and 8) | connectivity to tone composite benchmark signature query [1] | average C-map score [2] |
| --- | --- | --- | --- | --- | --- | --- | --- | --- |
| CC(=O)O.CC(=O)O.NC(=N\CCCCCC/N=C(N)/N=C(\N)Nc1ccc(Cl)cc1)/N=C(\N)Nc1ccc(Cl)cc1 [CD, Chlorhexidine Diacetate] | superior efficacy | superior efficacy | significantly fewer spots | significantly reduced fraction | superiority | superiority to the vehicle | top connectivity hit |  |
| CC1=C(/C=C/C(C)=C/C=C/C(C)=C/C(=O)O)C(C)(C)CCC1 [Retinoic acid, all-trans-retinoic acid] |  |  |  |  |  |  |  | highest score of the materials tested |
